Read-outs that look alike come from different tables or passages of the source.
Legend:
Panc2.13 = experiment: Combination viability/proliferation assays; format: cell-based; details: for effect in combination with K101A: Panc2.13, K101A at 1 μM or at 0.67 μM; for Combination effect, Panc2.13: K101A: agent in combination with K101A
Experimental: (§1) A 96-well MacSynergy II format for combination test was also used. […] The analysis was done with the SQRT(Data) scale and the four parameter Hill curve was fitted using XLfit5.1 (the MacSynergy II Excel Spreadsheet) for the inhibition data. Synergy (positive number) or Antagonism (negative number) volumes were calculated. […] Three-dimensional MacSynergy II graphs were generated where positive values indicated synergism and negative values indicated antagonism.

[1] = test system: A549 lung cancer cell line; experiment: Combination viability/proliferation assays (384-well IC50 ratio, 96-well MacSynergy II); format: cell-based; details: for Ratio ([…] DMSO IC50/combination IC50) / Combination in A549: K101A (synergism/antagonism) / Combination in A549: K102 (synergism/antagonism) / Combination in A549: K101E (synergism/antagonism): A549; for effect in combination with the PKC activator compounds in inhibiting the growth of A549 cells: PKC activator compounds (K101A, K101E, K102); for Combination in A549: K101A (synergism/antagonism): agent assayed in combination with K101A; for Combination in A549: K101A (synergism/antagonism) / Combination in A549: K102 (synergism/antagonism): * 2-3 concentrations, # full concentration ranges; for Combination in A549: K102 (synergism/antagonism): agent assayed in combination with K102; for Combination in A549: K101E (synergism/antagonism): agent assayed in combination with K101E
Experimental: as §1

[2] = test system: HL-60 human promyelocytic leukemia cells; experiment: Combination viability/proliferation assays
Experimental: Briefly, cells at density of 1,000-10,000 cells/well in 96-well plates or 200-1600 cells/well in 384-well plates were seeded and incubated at 37° C. for 24 hours before addition of compounds. A series of 9 different concentrations of compound stocks (500×) were prepared by 3-fold serial dilutions in DMSO. […] After 96 hours of incubation, 35 μL or 50 μL of CellTiter Glo reagent (Promega) was added to each well and luminescence was measured after 10 minutes using EnVision (PerkinElmer). Luminescence from cells treated with DMSO alone was set as Max and % of inhibition was calculated as follows: Inhibition %=(Max-Sample value)/Max*100. Data were analyzed using XLfit software (ID Business Solutions Ltd.) or GraphPad software and IC50, relative IC50, and % of top inhibition were calculated.
The top concentration for the tested PKC activator compound was set at roughly the IC50 when the same testing compound was used as a single agent assayed in the same cell line. The next dose was either 3-fold or 10-fold dilution from the top concentration.

MiaPaCa-2 = experiment: Proliferation assay (CellTiter Glo); format: cell-based; details: 96 hours
SW620 = experiment: Proliferation assay (CellTiter Glo); format: cell-based; details: 96 hours
Experimental: (§2) The dose range for most compounds was 4.6 nM-30 μM. The dose ranges for some compounds were adjusted downward to 0.46 nM-3 μM or 0.08 nM-0.5 μM or 0.03 nM-0.2 μM. […] The results are shown in Tables 3-6 for pancreatic cancer, lung cancer, colon/gastric cancer, and leukemia.

A549 = experiment: Proliferation assay (CellTiter Glo); format: cell-based; details: 96 hours
Experimental: as §2

AGS = experiment: Proliferation assay (CellTiter Glo); format: cell-based; details: 96 hours
Experimental: as §2

HCT116 = experiment: Proliferation assay (CellTiter Glo); format: cell-based; details: 96 hours
Experimental: as §2

H358 = experiment: Proliferation assay (CellTiter Glo); format: cell-based; details: HE58, 96 hours
Experimental: as §2

Capan-1 = experiment: Proliferation assay (CellTiter Glo); format: cell-based; details: 96 hours
Experimental: as §2

H727 = experiment: Proliferation assay (CellTiter Glo); format: cell-based; details: 96 hours
Experimental: as §2

KP-4 = experiment: Proliferation assay (CellTiter Glo); format: cell-based; details: 96 hours
Experimental: as §2

LS180 = experiment: Proliferation assay (CellTiter Glo); format: cell-based; details: 96 hours
Experimental: as §2

H441 = experiment: Proliferation assay (CellTiter Glo); format: cell-based; details: 96 hours
Experimental: as §2

HL60 = experiment: Proliferation assay (CellTiter Glo); format: cell-based, human; details: 96 hours
Experimental: as §2

THP1 = experiment: Proliferation assay (CellTiter Glo); format: cell-based, human; details: 96 hours
Experimental: as §2

Colo205 = experiment: Proliferation assay (CellTiter Glo); format: cell-based; details: Colo205 (RAS WT); 96 hours
Experimental: as §2
(§3) Other cancer cell lines having wild-type K-RAS status and K-RAS mutation at G12 were also screened using the PKC activator compounds. […] K104 was tested in a range of 0.03 nM-0.2 μM. […] The dose ranges were adjusted downward to 0.46 nM-3 μM for K102 and 0.08 nM-0.5 μM for K103 for some cell lines. The results of the screening of cancer cells lines with wild-type K-RAS status and K-RAS mutations at the G12 positions are presented in Table 7.

BxPC-3 = experiment: Proliferation assay (CellTiter Glo); format: cell-based; details: BxPC-3 (RAS WT); 96 hours
Experimental: as §2, §3

H1915 = experiment: Proliferation assay (CellTiter Glo); format: cell-based; details: H1915 (RAS WT); 96 hours
Experimental: as §2, §3

H838 = experiment: Proliferation assay (CellTiter Glo); format: cell-based; details: H838 (RAS WT); 96 hours
Experimental: as §2, §3

HT29 = experiment: Proliferation assay (CellTiter Glo); format: cell-based; details: HT29 (RAS WT); 96 hours
Experimental: as §2, §3

[3] = in combination with 0.0002 μM K102, NC: no change
[4] = in combination with 0.002 μM K102, NC: no change
[5] = in combination with 0.005 μM K101A, NC: no change
[6] = in combination with 0.02 μM K102, NC: no change
[7] = in combination with 0.05 μM K101A, NC: no change
[8] = in combination with 0.5 μM K101A, ratio >2 synergistic, <0.5 antagonistic, NC: no change

## O=C1[C@H](Cc2ccc(O)cc2)N2C(=O)CCN(C(=O)NCc3ccccc3)[C@H]2CN1Cc1cccc2ccccc12 [ICG-001, (6S,9aS)-Hexahydro-6-[(4-hydroxyphenyl)methyl]-8-(1-naphthalenylmethyl)-4,7-dioxo-N-(phenylmethyl)-2H-pyrazino[1,2-a]pyrimidine-1(6H)-carboxamide]
Panc2.13
  effect in combination with K101A: strong synergy
  Combination effect, Panc2.13: K101A: Synergism
[1]; in combination with 0.013 μM K102
  Ratio ([…] DMSO IC50/combination IC50): 0.96
[1]; in combination with 0.04 μM K102
  Ratio ([…] DMSO IC50/combination IC50): 1.10
[1]; in combination with 0.33 uM K101A
  Ratio ([…] DMSO IC50/combination IC50): 1.05
[1]; in combination with 1 uM K101A
  Ratio ([…] DMSO IC50/combination IC50): 1.10
[1]; K101A or K102
  effect in combination with K101A or K102 in inhibiting the growth of A549 cells: did not show synergy
[1]
  effect in combination with the PKC activator compounds in inhibiting the growth of A549 cells: insignificant synergism or antagonism
  Combination in A549: K101A (synergism/antagonism): None
  Combination in A549: K102 (synergism/antagonism): None

## Cc1nc(Nc2ncc(C(=O)Nc3c(C)cccc3Cl)s2)cc(N2CCN(CCO)CC2)n1 [Dasatinib]
[2]; combined with K101A (0.3 μM) or K102 (0.005 μM)
  increase of potency in inhibiting growth: more than 10 fold

## NC1(c2ccc(-c3nc4ccn5c(=O)[nH]nc5c4cc3-c3ccccc3)cc2)CCC1 [MK2206, 8-[4-(1-aminocyclobutyl)phenyl]-9-phenyl-2H-[1,2,4]triazolo[3,4-f][1,6]naphthyridin-3-one]
Panc2.13
  Combination effect, Panc2.13: K101A: None
[1]; [3]
  Ratio ([…] DMSO IC50/combination IC50): 0.81
[1]; [4]
  Ratio ([…] DMSO IC50/combination IC50): 3.13
[1]; [5]
  Ratio ([…] DMSO IC50/combination IC50): 0.68
[1]; [6]
  Ratio ([…] DMSO IC50/combination IC50): 5.57
[1]; [7]
  Ratio ([…] DMSO IC50/combination IC50): 2.13
[1]; [8]
  Ratio ([…] DMSO IC50/combination IC50): 6.03
[1]
  effect in combination with the PKC activator compounds in inhibiting the growth of A549 cells: strong synergy
  Combination in A549: K101A (synergism/antagonism): Synergism (strong)
  Combination in A549: K101E (synergism/antagonism): Synergism
  Combination in A549: K102 (synergism/antagonism): Synergism (strong)

## CC(=O)OC12CC(C)C3(O)C(C4OC4(CO)CC4(O)C(O)C(C)=CC43)C1C2(C)C (centres unmarked) [Compound K101D]
MiaPaCa-2; MiaPaCa-2 (K-RAS: G12C), absolute EC50, read-out: Ab EC50
  EC50: > 30 µM
MiaPaCa-2; MiaPaCa-2, % of top inhibition
  Top Inhibition %: 18.6%
SW620; SW620 (K-RAS: G12V), absolute EC50, read-out: Ab EC50
  EC50: > 30 µM
SW620; SW620, % of top inhibition
  Top Inhibition %: 0.0%
A549; A549 (K-RAS: G12S), absolute EC50, read-out: Ab EC50
  EC50: > 30 µM
A549; A549, % of top inhibition
  Top Inhibition %: 44.4%
A549; A549, relative EC50, read-out: Re EC50
  EC50: 7.72 µM
AGS; AGS (gastric, K-RAS: G12D), absolute EC50, read-out: Ab EC50
  EC50: > 30 µM
AGS; AGS, % of top inhibition
  Top Inhibition %: 13.5%
HCT116; HCT116 (K-RAS: G13D), absolute EC50, read-out: Ab EC50
  EC50: > 30 µM
HCT116; HCT116, % of top inhibition
  Top Inhibition %: 3.0%
H358; % of top inhibition
  Top Inhibition %: 23.0%
H358; absolute EC50, read-out: Ab EC50
  EC50: > 30 µM
H358; relative EC50, read-out: Re EC50
  EC50: 11 µM
Capan-1; Capan-1 (K-RAS: G12V), absolute EC50, read-out: Ab EC50
  EC50: > 30 µM
Capan-1; Capan-1, % of top inhibition
  Top Inhibition %: 22.3%
Capan-1; Capan-1, relative EC50, read-out: Re EC50
  EC50: 8.66 µM
H727; H727 (K-RAS: G12V), absolute EC50, read-out: Ab EC50
  EC50: > 30 µM
H727; H727, % of top inhibition
  Top Inhibition %: 31.8%
H727; H727, relative EC50, read-out: Re EC50
  EC50: 8.37 µM
KP-4; KP-4 (K-RAS: G12C), absolute EC50, read-out: Ab EC50
  EC50: > 30 µM
KP-4; KP-4, % of top inhibition
  Top Inhibition %: 47.9%
KP-4; KP-4, relative EC50, read-out: Re EC50
  EC50: 5.47 µM
LS180; LS180 (K-RAS: G12D), absolute EC50, read-out: Ab EC50
  EC50: > 30 µM
LS180; LS180, % of top inhibition
  Top Inhibition %: 8.2%
H441; H441 (K-RAS: G12V), absolute EC50, read-out: Ab EC50
  EC50: > 30 µM
H441; H441, % of top inhibition
  Top Inhibition %: 11.6%
HL60; HL60 (N-RAS: Q61L), absolute EC50, read-out: Ab EC50
  EC50: > 30 µM
HL60; HL60, % of top inhibition
  Top Inhibition %: 14.4%
THP1; THP1 (N-RAS: G12D), absolute EC50, read-out: Ab EC50
  EC50: > 30 µM
THP1; THP1, % of top inhibition
  Top Inhibition %: 33.6%
THP1; THP1, relative EC50, read-out: Re EC50
  EC50: 14 µM
Colo205
  Top Inhibition %: 42.3%
BxPC-3
  Top Inhibition %: 37.49%
H1915
  Top Inhibition %: 28.6%
H838
  Top Inhibition %: 27.7%
HT29
  Top Inhibition %: 10.0%

## O=C(CCCCCCC(=O)Nc1ccccc1)NO [SAHA, suberoylanilide hydroxamic acid]
[2]
  effect in combination with K101A and K102: moderate or minor synergistic/additive effect
[1]
  Combination in A549: K101A (synergism/antagonism): Antagonism (minor)
  Combination in A549: K102 (synergism/antagonism): Antagonism (minor)

## O=C(c1cc(Cc2n[nH]c(=O)c3ccccc23)ccc1F)N1CCN(C(=O)C2CC2)CC1 [Olaparib]
Panc2.13
  effect in combination with K101A: strong synergy
  Combination effect, Panc2.13: K101A: Synergism
[1]; [3]
  Ratio ([…] DMSO IC50/combination IC50): 0.78
[1]; [4]
  Ratio ([…] DMSO IC50/combination IC50): 1.43
[1]; [5]
  Ratio ([…] DMSO IC50/combination IC50): 0.91
[1]; [6]
  Ratio ([…] DMSO IC50/combination IC50): 2.74
[1]; in combination with 0.03 μM K101E (footnote, Olaparib)
  Ratio ([…] DMSO IC50/combination IC50): 1.15
[1]; [7]
  Ratio ([…] DMSO IC50/combination IC50): 1.38
[1]; in combination with 0.3 μM K101E (footnote, Olaparib)
  Ratio ([…] DMSO IC50/combination IC50): 1.30
[1]; [8]
  Ratio ([…] DMSO IC50/combination IC50): 2.76
[1]; in combination with 3 μM K101E (footnote, Olaparib)
  Ratio ([…] DMSO IC50/combination IC50): 1.97
[1]
  effect in combination with the PKC activator compounds in inhibiting the growth of A549 cells: synergistic effect
  Combination in A549: K101A (synergism/antagonism): Synergism
  Combination in A549: K101E (synergism/antagonism): None
  Combination in A549: K102 (synergism/antagonism): Synergism
